Laboratory results published in patent US10053434B2, “Histone deacetylase inhibitors and compositions and methods of use thereof” (CHDI Foundation, Inc., priority 2015, dated 2018).
Where a name gives a salt, the structure may show the parent alone.

Legend:
[1] = tested on: Cellular Class I HDAC activity; test: Inhibition of cellular Class I HDAC activity; Cell (Lys-Ac) substrate, Jurkat E6-1 cells; assay type: cell-based; settings: Boc-Lys(Ac)-AMC substrate
Excerpt: (§1) The potency of Class IIa Histone Deacetylase (HDAC) inhibitors was quantified by measuring the cellular histone deacetylase enzymatic activity using the fluorogenic substrate, Boc-Lys(TFA)-AMC. After penetration in Jurkat E6-1 cells, the substrate was deacetylated to Boc-Lys-AMC. After cell lysis and cleavage by trypsin, the fluorophore AMC was released from the deacetylated substrate only. The fluorescence of the sample was directly related to the histone deacetylase activity in the sample.
(§2) Jurkat E6.1 cells were cultured according to standard cell culture protocols in Jurkat E6.1 Growth Media (RPMI without phenol red, 10% FBS, 10 mM HEPES, and 1 mM Sodium Pyruvate). Jurkat E6.1 cells were counted using a Coulter Counter and resuspended in Jurkat E6.1 growth media at a concentration of 75,000 cells/35 μL. 35 μL or 75,000 cells was seeded into Greiner microtitre assay plates. The plates were then incubated at 37° C. and 5% CO2 while other assay components were being prepared.
(§3) Serial dilutions of the HDAC inhibitors and control reference compound (1-(5-(3-((4-(1,3,4-oxadiazol-2-yl)phenoxy)methyl)-1,2,4-oxadiazol-5-yl)thiophen-2-yl)-2,2,2-trifluoroethanone) were made by first resuspending the lyophilized compound to a final concentration of 10 mM in 100% DMSO. Stocks of 70 μL aliquots of the 10 mM compound in DMSO were prepared and stored at −20° C. From one stock aliquot of each tested compound and the reference compound, a 16-point serial dilution was prepared according to Table 1 using a 125 μL 16-channel Matrix multi-channel pipette.
(§4) 2 μL (200×) of each diluted solution and each control (full activity: 100% DMSO alone or full inhibition 1 mM) was stamped into V-bottom polypropylene 384-well compound plates using either the Bravo, Janus, or 12.5 μL 16-channel Matrix multi-channel pipette. Each well with the 200× compound solution was diluted 1:20 by the addition of 38 μL Jurkat assay buffer+DMSO (9.5% DMSO, RPMI without phenol red, 0.09% FBS, 9 mM Hepes, and 0.9 mM Sodium Pyruvate equilibrated to r.t.)
(§5) 5× (500 μM) substrate was prepared just prior to the addition to the assay. The 5× substrate was prepared by diluting a 100 mM Boc-Lys(TFA)-AMC in DMSO solution 1:200 by adding it drop-wise to Jurkat assay medium (RPMI without phenol red, 0.1% FBS, 10 mM Hepes, and 1 mM Sodium Pyruvate equilibrated to 37° C.) while vortexing at slow speed to prevent precipitation.
(§6) 10 mL of 3× lysis buffer was prepared with 8.8 mL of 3× stock lysis buffer (50 mM Tris-HCl, pH 8.0, 137 mM NaCl, 2.7 mM KCl, 1 mM MgCl2, 1% Nonidet P40 Substitute equilibrated to r.t.) and 1.2 mL of 3 mg/mL Trypsin equilibrated to r.t.
(§7) 5 μL of each solution of 1:20 diluted compound from above was transferred to the Greiner microtitre assay plates with 75,000 cells/well using the Bravo. Cells were then incubated for 2 hours at 37° C. and 5% CO2. The assay was then started by adding 10 μL of 5× (500 μM) substrate to the assay plate using either the Bravo or 16-channel Matrix multi-channel pipette. The cells were then incubated for 3 hours at 37° C. and 5% CO2. Next, 25 μL of 3× lysis buffer was added to each well using either the 125 μL 16 channel pipette or the Bravo. The assay plate was then incubated overnight (15-16 hours) at 37° C. and 5% CO2. The following day, the plates were shaken on an orbital shaker for 1 minute at 900 rpm. Finally the top read fluorescence (Excitation: 355 nm, Emission: 460 nm) was measured using PerkinElmer EnVision.
Example 30: Analysis of Inhibition of Cellular Class I HDAC Activity with Class IIa Histone Deacetylase (HDAC) Inhibitors; Cell (Lys-Ac) Substrate
The Class I HDAC activity of Class IIa Histone Deacetylase (HDAC) inhibitors was quantified by measuring the cellular histone deacetylase enzymatic activity using the fluorogenic substrate, Boc-Lys(Ac)-AMC. This was performed according to the procedure in Example 29, using Boc-Lys(Ac)-AMC substrate in place of Boc-Lys(TFA)-AMC.

[2] = tested on: Cellular Class IIa HDAC activity; test: Inhibition of cellular Class IIa HDAC activity; Cell (Lys-TFA) substrate, Jurkat E6-1 cells; assay type: cell-based; settings: Boc-Lys(TFA)-AMC substrate
Excerpt: Example 29: Analysis of Inhibition of Cellular Class IIa HDAC Activity with Class IIa Histone Deacetylase (HDAC) Inhibitors; Cell (Lys-TFA) Substrate
as §1
Jurkat E6.1 Cell Culture and Plating.
as §2
(§8) Serially Dilute HDAC Inhibitor Compounds.
as §3, §4
Prepare 5× (500 μM) Boc-Lys(TFA)-AMC Substrate.
as §5, §6, §7

[3] = biological target: human catalytic domain HDAC4 protein (amino acids 648-1032) (Homo sapiens (Human), UniProt P56524); test: HDAC4 catalytic domain enzymatic activity, fluorogenic substrate Boc-Lys(TFA)-AMC; settings: read-out: HDAC4 Biochemical IC50
Excerpt: Example 25: Analysis of Inhibition of HDAC4 with Class IIa Histone Deacetylase (HDAC) Inhibitors
The potency of Class IIa Histone Deacetylase (HDAC) inhibitors was quantified by measuring the Histone Deacetylase 4 (HDAC4) catalytic domain enzymatic activity using the fluorogenic substrate, Boc-Lys(TFA)-AMC. The substrate was deacetylated to Boc-Lys-AMC by HDAC4. […] The fluorescence of the sample was directly related to the histone deacetylase activity in the sample.
as §8
as §3, with “dimethyl sulfoxide (DMSO).” for “DMSO.”, “60” for “70”, “pipette (Matrix Technologies Ltd).” for “pipette.”
2 μL (200×) of each diluted solution and each control (full activity: 100% DMSO alone or full inhibition 1 mM) was stamped into V-bottomed polypropylene 384-well compound plates using either the Bravo (384-well head from Agilent) or 12.5 μL 16-channel Matrix multi-channel pipette (Matrix Technologies Ltd). Each well with the 200× compound solution was diluted 1:20 by the addition of 38 μL assay buffer+DMSO (10.5% DMSO, 45 mM Tris-HCl, 123 mM NaCl, 2.4 mM KCl, and 0.9 mM MgCl2 at pH 8.0 and equilibrated to r.t.).
Prepare HDAC4 Catalytic Domain Enzyme (0.2 μg/mL).
The HDAC4 catalytic domain enzyme was human catalytic domain HDAC4 protein (amino acids 648-1032) with a C-terminal 6× histidine tag, produced by BioFocus. A working solution of enzyme was prepared from a […] stock aliquot of HDAC4 catalytic domain (thawed on ice) diluted to 0.2 μg/mL with assay buffer (50 mM Tris-HCl, 137 mM NaCl, 2.7 mM KCl, and 1 mM MgCl2 at pH 8 and equilibrated to r.t.) just prior to the addition of the enzyme to the assay.
Prepare 5× (50 μM) Boc-Lys(TFA)-AMC Substrate.
5× (50 μM) substrate was prepared just prior to the addition to the assay. A 1 mM substrate stock was made by diluting a 100 mM Boc-Lys(TFA)-AMC in DMSO solution 1:100 by adding it drop-wise to assay buffer (equilibrated to r.t.) while vortexing at slow speed to prevent precipitation. The 5× substrate was prepared by diluting the 1 mM substrate solution 1:20 by adding it drop-wise to assay buffer (equilibrated to r.t.) while vortexing at slow speed to prevent precipitation.
Prepare 3× (30 μM) Developer/Stop Solution.
3× (30 μM) Developer/Stop Solution was prepared just prior to addition to the plate by diluting a stock solution of 10 mM reference compound 1:333 in 25 mg/mL trypsin (PAA Laboratories Ltd.) equilibrated to r.t.
5 μL of each solution of 1:20 diluted compound from above was transferred to a clear bottomed, black, 384-well assay plate using the Bravo or the Janus (384-well MDT head from Perkin Elmer). Using a 16-channel Matrix multi-channel pipette, 35 μL of the working solution of HDAC4 catalytic domain enzyme (0.2 μg/mL in assay buffer) was transferred to the assay plate. The assay was then started by adding 10 μL of 5× (50 μM) substrate to the assay plates using either the Bravo, Janus or 16-channel Matrix multi-channel pipette. The assay plate was then shaken for two minutes on an orbital shaker at 900 rpm (rotations per minute). Next the plate was incubated for 15 minutes at 37° C. The reaction was stopped by adding 25 μL of 3× (30 μM) developer/stop solution to the assay plates using either the Bravo, Janus or a 16-channel Matrix multi-channel pipette. Assay plates were then shaken for 5 minutes on an orbital shaker at 1200 rpm. Next, the assay plates were incubated at 37° C. for 1 hour in a tissue culture incubator. […]

Sequence of human catalytic domain HDAC4 protein (amino acids 648-1032) (P56524 648-1032): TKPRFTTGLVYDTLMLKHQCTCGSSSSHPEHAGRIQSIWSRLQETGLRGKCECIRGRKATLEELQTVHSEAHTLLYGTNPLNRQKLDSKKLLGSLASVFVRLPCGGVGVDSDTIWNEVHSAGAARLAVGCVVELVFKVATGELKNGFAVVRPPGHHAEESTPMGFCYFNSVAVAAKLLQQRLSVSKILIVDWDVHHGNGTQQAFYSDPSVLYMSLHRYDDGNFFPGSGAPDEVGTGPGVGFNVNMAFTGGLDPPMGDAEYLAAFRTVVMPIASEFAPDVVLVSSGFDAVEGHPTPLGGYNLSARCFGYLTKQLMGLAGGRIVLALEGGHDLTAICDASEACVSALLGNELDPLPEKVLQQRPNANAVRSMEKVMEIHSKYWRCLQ

Row | SMILES | IC50 [1] | IC50 [2] | IC50 [3]
1 | C[C@H](CN1CCC12CCC2)NC(=O)c1ccc(-c2noc(C(F)(F)F)n2)cc1 [Example 14, (R)—N-(1-(1-Azaspiro[3.3]heptan-1-yl)propan-2-yl)-4-(5-(trifluoromethyl)-1,2,4-oxadiazol-3-yl)benzamide] | 7.7 µM | 0.18 µM | 0.016 µM
2 | C[C@H](CN1CC2CCC(C2)C1)NC(=O)c1ccc(-c2noc(C(F)(F)F)n2)cc1 [Example 16, N-((2R)-1-(3-Azabicyclo[3.2.1]octan-3-yl)propan-2-yl)-4-(5-(trifluoromethyl)-1,2,4-oxadiazol-3-yl)benzamide] | 0.89 µM | 0.012 µM | 0.007 µM
3 | C[C@H](CN1CC2CCCC2C1)NC(=O)c1ccc(-c2noc(C(F)(F)F)n2)cc1 (stereo partly drawn) [Example 17, 2-((R)-2-(4-(5-(Trifluoromethyl)-1,2,4-oxadiazol-3-yl)benzamido)propyl)octahydrocyclopenta[c]pyrrol-2-ium formate] | 0.69 µM | 0.028 µM | 0.012 µM
4 | C[C@H](CN1CC2CCC2C1)NC(=O)c1ccc(-c2noc(C(F)(F)F)n2)cc1 (stereo partly drawn) [Example 19, N-((2R)-1-(3-Azabicyclo[3.2.0]heptan-3-yl)propan-2-yl)-4-(5-(trifluoromethyl)-1,2,4-oxadiazol-3-yl)benzamide] | 1.1 µM | 0.009 µM | 0.004 µM
5 | C[C@H](CN1CC2C(C1)C2(C)C)NC(=O)c1ccc(-c2noc(C(F)(F)F)n2)cc1 (stereo partly drawn) [Example 22, N-((2R)-1-(6,6-Dimethyl-3-azabicyclo[3.1.0]hexan-3-yl)propan-2-yl)-4-(5-(trifluoromethyl)-1,2,4-oxadiazol-3-yl)benzamide] | 6.1 µM | 0.086 µM | 0.02 µM
6 | C[C@H](CN1CCC[C@@H]1C)NC(=O)c1ccc(-c2noc(C(F)(F)F)n2)c(F)c1 [Example 23, (2S)-1-((R)-2-(3-Fluoro-4-(5-(trifluoromethyl)-1,2,4-oxadiazol-3-yl)benzamido)propyl)-2-methylpyrrolidin-1-ium formate] | 21.4 µM | 0.072 µM | 0.009 µM
7 | C[C@H](CN1CCC[C@@H]1C)NC(=O)c1ccc(-c2noc(C(F)(F)F)n2)cn1 [Example 24, N—((R)-1-((S)-2-Methylpyrrolidin-1-yl)propan-2-yl)-5-(5-(trifluoromethyl)-1,2,4-oxadiazol-3-yl)picolinamide] | 33.7 µM | 1.03 µM | 0.134 µM

Second part, the molecule after the results:

Row | IC50 [1] | IC50 [2] | IC50 [3] | SMILES
8 | 1.7 µM | 0.03 µM | 0.011 µM | C[C@H](CN1CCCCCC1)NC(=O)c1ccc(-c2noc(C(F)(F)F)n2)cc1 [Example 13, (R)—N-(1-(Azepan-1-yl)propan-2-yl)-4-(5-(trifluoromethyl)-1,2,4-oxadiazol-3-yl)benzamide]
9 | 5.1 µM | 0.069 µM | 0.008 µM | C[C@H](CN1CCC2(CC2)C1)NC(=O)c1ccc(-c2noc(C(F)(F)F)n2)cc1 [Example 15, (R)—N-(1-(5-Azaspiro[2.4]heptan-5-yl)propan-2-yl)-4-(5-(trifluoromethyl)-1,2,4-oxadiazol-3-yl)benzamide]
10 | 12.7 µM | 0.19 µM | 0.006 µM | C[C@H](CN1CCc2ccncc2C1)NC(=O)c1ccc(-c2noc(C(F)(F)F)n2)cc1 [Example 18, (R)—N-(1-(3,4-dihydro-2,7-naphthyridin-2(1H)-yl)propan-2-yl)-4-(5-(trifluoromethyl)-1,2,4-oxadiazol-3-yl)benzamide]
